Experimental findings from patent publication US20240108004A1, “METHOD FOR CONTROLLING INSECTS IN CROP PLANTS, SEEDS AND COMPOSITION” (Nippon Soda Co., Ltd., priority 2021, published 2024) are described below.

The test system of test [1] is wire worm (Agriotes sp.) larvae. As to the kind of experiment: Efficacy test of corn seed treatment against Agriotes sp. The format is in vivo. The following applies: corn seeds coated, 42 days; for Healthy stock ratio: 50 g compound per 50,000 seeds, 12 larvae per 12-seed container, outdoors. The source says:
Efficacy test of corn seed treatment against Agriotes sp.
The compound (1) (30 parts), tristyryl-based surfactant (6.0 parts), dioctylsulfosuccinate metal salt (1.5 parts), silicone-based defoamer (1.2 parts), xanthan gum (0.2 parts), 1,2-benzisothiazolin-3-one (0.1 parts), propylene glycol (5.0 parts), and water (56 parts) were mixed to prepare a reagent solution.
Corn seeds were coated with the reagent solution so that the treatment amount of the compound (1) was 50 g per 50,000 seeds.
Further, corn seeds were similarly coated with tefluthrin as a control agent so that the treatment amount was 10 g per 50,000 seeds.
The treated seeds were planted in a 12-seed container and inoculated with 12 wire worm (Agriotes sp.) larvae. The container was placed outdoors, and 42 days later, the number of healthy stocks and the number of damaged stocks were investigated to determine the efficacy. The test was repeated 4 times.
The healthy stock ratio was calculated using the following formula.
Healthy stock ratio (%)=100×(number of healthy stocks/number of seeds)

Another test has as its system Phyllotreta striolata. Briefly: Efficacy test of rape seed treatment against Phyllotreta striolata. The format is in vivo. The following applies: rape seeds coated, 10 g per 100 kg of seeds; inoculated 14 days after planting; 6 days after releasing the insects; 25° C., humidity 65%. From the text:
Efficacy test of rape seed treatment against Phyllotreta striolata
The compound (I) (30 parts), tristyryl-based surfactant (6.0 parts), dioctylsulfosuccinate metal salt (1.5 parts), silicone-based defoamer (1.2 parts), xanthan gum (0.2 parts), 1,2-benzisothiazolin-3-one (0.1 parts), propylene glycol (5.0 parts), and water (56 parts) were mixed to prepare a reagent solution.
Rape seeds were coated with the reagent solution so that the treatment amount of the compound (I) was 10 g per 100 kg of seeds.
The treated seeds were planted in a 10-seed pot and raised in a greenhouse for 14 days. After that, each pot was inoculated with 5 Phyllotreta striolata. The pots were stored in a constant temperature room at a temperature of 25° C. and at a humidity of 65%.
The life/death determination was made 6 days after releasing the insects, and the insecticidal rate was calculated by the following formula. The test was repeated 3 times.
Insecticidal rate (%)=(number of dead insects/number of test insects)×100

Consider `Cc1c(F)c(F)c(COC(=O)[C@@H]2[C@H](/C=C(\Cl)C(F)(F)F)C2(C)C)c(F)c1F` (racemic) [tefluthrin, reference compound], for which the healthy stock rate in test [1] (control agent, 10 g per 50,000 seeds) is given as 62.5%.
For `CCS(=O)(=O)c1cc(C2CC2)cnc1-c1ncc(C=C(Cl)C(F)(F)F)n1C` [formula (II)], the Healthy stock ratio in test [1] came out at 83.3%. Further, in the test on Phyllotreta striolata, the Insecticidal rate was determined as 100%.
With `CCS(=O)(=O)c1cc(C2CC2)cnc1-c1ncc(C(F)C(F)(C(F)(F)F)C(F)(F)F)n1C` (centres unmarked) [formula (III)], the Healthy stock ratio in test [1] (unit not given) came to 81.3. Further, in the test with Phyllotreta striolata, the Insecticidal rate amounted to 100%.
